{"source": "patent US9150555B2", "about": "“Amide derivative and use thereof” (Mitsubishi Tanabe Pharma Corporation, priority 2010, dated 2015)", "key": {"[1]": {"system": "IL-17 production of mouse spleen cells stimulated by rm-IL-23", "assay": "Production of IL-17 induced when mouse spleen cells were stimulated by recombinant mouse interleukin-23 (rm-IL-23)", "format": "cell-based", "conditions": "inhibition of IL-17 production, DBA/1J mouse spleen cells, rm-IL-23 1 nmol/L, ELISA", "method_in_brief": "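Spleen cells from 6-7 week-old male DBA/1J mice, 2×10^5 cells/well in 10% FCS RPMI1640, cultured 72 h at 37° C with compound (1 to 1,000 nmol/L) plus 1 nmol/L rm-IL-23. IL-17 in supernatant by ELISA; viability by WST-8 absorbance at 450 nm; IC50 by linear regression of inhibition rate.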"}, "hERG [2]": {"target": "T1, hERG (Homo sapiens, UniProt Q12809)", "T1 sequence (Q12809 whole entry)": "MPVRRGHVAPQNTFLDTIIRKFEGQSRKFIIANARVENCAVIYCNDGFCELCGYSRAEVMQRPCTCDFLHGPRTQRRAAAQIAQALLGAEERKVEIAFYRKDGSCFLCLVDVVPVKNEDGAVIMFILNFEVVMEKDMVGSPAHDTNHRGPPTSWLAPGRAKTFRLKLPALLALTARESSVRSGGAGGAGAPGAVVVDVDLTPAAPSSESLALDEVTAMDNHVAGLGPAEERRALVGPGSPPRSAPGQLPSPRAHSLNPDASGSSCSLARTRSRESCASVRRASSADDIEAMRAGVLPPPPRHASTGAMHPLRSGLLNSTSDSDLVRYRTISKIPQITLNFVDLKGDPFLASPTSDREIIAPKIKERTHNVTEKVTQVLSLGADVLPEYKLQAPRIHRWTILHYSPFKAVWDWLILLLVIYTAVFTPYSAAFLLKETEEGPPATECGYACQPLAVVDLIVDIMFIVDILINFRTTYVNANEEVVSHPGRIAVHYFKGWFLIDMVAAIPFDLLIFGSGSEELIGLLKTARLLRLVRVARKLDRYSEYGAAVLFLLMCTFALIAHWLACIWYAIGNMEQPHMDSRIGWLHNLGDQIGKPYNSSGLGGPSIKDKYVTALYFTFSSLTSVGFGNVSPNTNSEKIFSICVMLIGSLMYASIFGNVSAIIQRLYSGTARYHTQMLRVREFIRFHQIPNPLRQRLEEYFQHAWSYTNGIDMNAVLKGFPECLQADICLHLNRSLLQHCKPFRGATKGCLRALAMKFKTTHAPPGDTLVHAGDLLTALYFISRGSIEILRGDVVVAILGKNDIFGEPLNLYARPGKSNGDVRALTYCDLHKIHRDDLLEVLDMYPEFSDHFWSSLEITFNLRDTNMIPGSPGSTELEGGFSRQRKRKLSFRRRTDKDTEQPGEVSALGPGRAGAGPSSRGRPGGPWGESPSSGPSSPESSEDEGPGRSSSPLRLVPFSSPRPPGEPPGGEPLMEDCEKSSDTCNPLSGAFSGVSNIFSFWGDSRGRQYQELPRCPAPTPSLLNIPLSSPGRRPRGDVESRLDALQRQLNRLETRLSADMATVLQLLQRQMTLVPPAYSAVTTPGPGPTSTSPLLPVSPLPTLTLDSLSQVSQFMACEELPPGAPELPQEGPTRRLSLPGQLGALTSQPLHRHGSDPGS", "assay": "in vitro", "conditions": "pH 7.4, hERG inhibition rate (%) (1 μM)"}, "[3]": {"target": "T2, hERG current in hERG-expressed HEK 293 cells (Homo sapiens, UniProt Q12809)", "T2 sequence (Q12809 whole entry)": "as above", "assay": "Effects on hERG current (whole-cell clamping)", "conditions": "1 μM; tail peak current; hERG-expressed HEK 293 cells"}, "[4]": {"target": "T2, hERG current in hERG-expressed HEK 293 cells"}, "[5]": {"system": "Type II collagen-induced arthritis in DBA/1J mice", "assay": "Type II collagen-induced arthritis in DBA/1J mice", "format": "in vivo, mouse", "conditions": "dose showing significant inhibitory effect on arthritis, oral, once a day for three weeks from booster immunization; for minimal effective dose: Mus musculus, 504 h", "description": "Effect on Type II Collagen-Induced Arthritis in DBA/1J Mice\nAn emulsion was prepared by mixing bovine II collagen (100-200 μg purchased from collagen Gijyutsu Kenshuukai) and Freund's complete adjuvant (Sigma Aldrich) containing killed Mycobacterium tuberculosis H37Ra. Arthritis was induced by immunization through subcutaneous administration of the emulsion to the tail of 6-7 week-old male DBA/1J mouse (Charles River Japan, Inc.), followed by booster immunization three weeks later by administration of an emulsion prepared by mixing bovine II collagen with Freund's incomplete adjuvant (Sigma-Aldrich). Test compound was suspended or dissolved in 0.5% carboxymethylcellulose (Sigma-Aldrich) and repeatedly administered orally once a day at a dose of 0.1 to 10 mg/kg body weight using an oralsonde for three weeks from the day of booster immunization. In this model, the symptom of arthritis of the limbs was each evaluated according to the following evaluation criteria of 0 to 4 scores: 0, No change; 1, edema in only one joint; 2, edema in two or more joints, or light edema of the entire limb; 3, severe edema of the entire limb; 4, severe edema of the entire limb and ankylosis and immovability of joint. The score of arthritis of each mouse was expressed as the total of the scores of the limbs (Maximum: 16 points). On the next day of the last administration, soft X-ray photograph of the limbs was taken with soft X-ray equipment (Omic), and the level of joint destruction was evaluated by observation under a microscope. In each finger of the limbs the score of joint destruction was judged as 0 when no joint destruction was found, and as 1 when one or more destruction was found, and the score of joint destruction of a mouse was expressed as the total of scores for each finger of limb (Maximum: 20). The arthritis score and joint destruction score were expressed as the average value and standard error for each group (n=6-8). Only a vehicle was administered in a control group, and statistical analysis was performed by Dunnett's multiple comparison test, in which the case was judged as significant when the p value was less than 0.05."}, "hERG [6]": {"target": "T1, hERG", "assay": "Effects on hERG current (whole-cell clamping)", "conditions": "human, HEK 293 cells that express hERG, pH 7.4, hERG inhibition rate (%) (1 μM), 1 μM; tail peak current; hERG-expressed HEK 293 cells"}}, "note": "Like-named read-outs stand apart in the source and are kept apart here."}
{"smiles": "Cc1c(C(=O)Nc2ccc(C3(C#N)CCN([C@H]4CCO[C@H]4C)CC3)nc2)cnn1-c1ccc(C(F)(F)F)cn1", "note": "(relative stereo) [Example D8, cis-N-{6-[4-Cyano-1-(2-methyltetrahydrofuran-3-yl)piperidin-4-yl]pyridin-3-yl}-5-methyl-1-[5-(trifluoromethyl)pyridin-2-yl]-1H-pyrazole-4-carboxamide]", "values": [{"measurement": "IC50", "setting": "[1]; 72 hours", "result": 114, "unit": "nM"}, {"measurement": "inhibition at 1 µM", "setting": "hERG [2]", "result": 15.8, "unit": "%"}]}
{"smiles": "Cc1c(C(=O)Nc2ccc(C3(C#N)CCN([C@H]4CCO[C@H]4C)CC3)nc2)cnn1-c1ccc(C2CC2)cn1", "note": "(relative stereo) [Example D10, cis-N-{6-[4-Cyano-1-(2-methyltetrahydrofuran-3-yl)piperidin-4-yl]pyridin-3-yl}-1-(5-cyclopropylpyridin-2-yl)-5-methyl-1H-pyrazole-4-carboxamide]", "values": [{"measurement": "IC50", "setting": "[1]; 72 hours", "result": 120, "unit": "nM"}, {"measurement": "inhibition at 1 µM", "setting": "hERG [2]", "result": 6.7, "unit": "%"}]}
{"smiles": "Cc1c(C(=O)Nc2ccc(C3(C#N)CCN([C@H]4CCO[C@H]4C)CC3)nc2)cnn1-c1ccc(C(F)(F)F)cc1", "note": "(relative stereo) [Example D11, cis-N-{6-[4-Cyano-1-(2-methyltetrahydrofuran-3-yl)piperidin-4-yl]pyridin-3-yl}-5-methyl-1-[4-(trifluoromethyl)phenyl]-1H-pyrazole-4-carboxamide]", "values": [{"measurement": "IC50", "setting": "[1]; 72 hours", "result": 53.4, "unit": "nM"}, {"measurement": "inhibition at 1 µM", "setting": "hERG [2]", "result": 21, "unit": "%"}]}
{"smiles": "Cc1ccc(-n2ncc(C(=O)Nc3ccc(C4(C#N)CCC(N5CCOCC5)CC4)nc3)c2C)cc1.Cl", "note": "(stereo not drawn) [Example D2, N-{6-[r-1-Cyano-c-4-(morpholin-4-yl)cyclohexyl]pyridin-3-yl}-5-methyl-1-(4-methylphenyl)-1H-pyrazole-4-carboxamide hydrochloride]", "values": [{"measurement": "IC50", "setting": "[1]; 72 hours", "result": 193, "unit": "nM"}, {"measurement": "hERG inhibition rate (%) (1 μM)", "setting": "[3]", "result": 43.4, "unit": "%"}]}
{"smiles": "COCOC1CCC(C#N)(c2ccc(NC(=O)c3cnn(-c4ccc(C)cc4)c3C)cn2)CC1", "note": "(stereo not drawn) [Example D3, N-{6-[r-1-Cyano-c-4-(methoxymethoxy)cyclohexyl]pyridin-3-yl}-5-methyl-1-(4-methylphenyl)-1H-pyrazole-4-carboxamide]", "values": [{"measurement": "IC50", "setting": "[1]; 72 hours", "result": 182, "unit": "nM"}, {"measurement": "hERG inhibition rate (%) (1 μM)", "setting": "[4]", "result": 7.2, "unit": "%"}]}
{"smiles": "Cc1c(C(=O)Nc2ccc(C3(C#N)CCN(CC(C)(C)O)CC3)nc2)cnn1-c1ccc(C(F)(F)F)cn1", "note": "[Example D9, N-{6-[4-Cyano-1-(2-hydroxy-2-methylpropyl)piperidin-4-yl]pyridin-3-yl}-5-methyl-1-[5-(trifluoromethyl)pyridin-2-yl]-1H-pyrazole-4-carboxamide]", "values": [{"measurement": "IC50", "setting": "[1]; 72 hours", "result": 76.7, "unit": "nM"}, {"measurement": "inhibition at 1 µM", "setting": "hERG [2]", "result": 42.1, "unit": "%"}]}
{"smiles": "Cc1c(C(=O)Nc2ccc(C3(C#N)CCN(CC(C)(C)O)CC3)nc2)cnn1-c1ccc(C2CC2)cn1", "note": "[Example D12, N-{6-[4-Cyano-1-(2-hydroxy-2-methylpropyl)piperidin-4-yl]pyridin-3-yl}-1-(5-cyclopropylpyridin-2-yl)-5-methyl-1H-pyrazole-4-carboxamide]", "values": [{"measurement": "IC50", "setting": "[1]; 72 hours", "result": 117, "unit": "nM"}, {"measurement": "inhibition at 1 µM", "setting": "hERG [2]", "result": 29.2, "unit": "%"}]}
{"smiles": "CS(=O)(=O)O.Cc1cc(NC(=O)c2cnn(-c3ccc(C(F)(F)F)cn3)c2C)cnc1C1=CCC(N2CCOCC2)CC1", "note": "(stereo not drawn) [Example D20, 5-Methyl-N-{5-methyl-6-[4-(morpholin-4-yl)cyclohex-1-en-1-yl]pyridin-3-yl}-1-[5-(trifluoromethyl)pyridin-2-yl]-1H-pyrazole-4-carboxamide mesylate]", "values": [{"measurement": "IC50", "setting": "[1]; Mus musculus, 72 h", "result": 56.4, "unit": "nM"}, {"measurement": "minimal effective dose", "setting": "[5]", "result": 1, "unit": "mg/kg"}, {"measurement": "inhibition at 1 µM", "setting": "hERG [6]", "result": 32.2, "unit": "%"}]}
{"smiles": "Cc1c(C(=O)Nc2ccc(C3(C#N)CCN(CC(C)(C)O)CC3)nc2)cnn1-c1ccc(Cl)cc1", "note": "[Example D116]", "values": [{"measurement": "IC50", "setting": "[1]; 72 hours", "result": 129, "unit": "nM"}, {"measurement": "inhibition at 1 µM", "setting": "hERG [2]", "result": 41.2, "unit": "%"}]}
{"smiles": "Cc1c(C(=O)Nc2ccc(C3(C#N)CCN(CC(C)(C)O)CC3)nc2)cnn1-c1ccc(C(F)(F)F)cc1", "note": "[Example D117]", "values": [{"measurement": "IC50", "setting": "[1]; 72 hours", "result": 57, "unit": "nM"}, {"measurement": "inhibition at 1 µM", "setting": "hERG [2]", "result": 35.6, "unit": "%"}]}
{"smiles": "Cc1c(C(=O)Nc2ccc([C@]3(C#N)CC[C@@H](N4CCOCC4)CC3)nc2)cnn1-c1ccc(C(F)(F)F)cc1", "note": "[Example D146]", "values": [{"measurement": "IC50", "setting": "[1]; Mus musculus, 72 h", "result": 46.6, "unit": "nM"}, {"measurement": "minimal effective dose", "setting": "[5]", "result": 0.1, "unit": "mg/kg"}, {"measurement": "inhibition at 1 µM", "setting": "hERG [6]", "result": 47.2, "unit": "%"}]}
{"smiles": "Cc1cc(NC(=O)c2cnn(-c3ccc(C(F)(F)F)cn3)c2C)cnc1C1=CC[C@@H](N2CCOCC2)CC1", "note": "[Example D303]", "values": [{"measurement": "IC50", "setting": "[1]; 72 hours", "result": 48, "unit": "nM"}, {"measurement": "hERG inhibition rate (%) (1 μM)", "setting": "[3]", "result": 22.7, "unit": "%"}]}
{"smiles": "Cc1c(C(=O)Nc2ccc(C3(C#N)CCN(C4CCOCC4)CC3)nc2)cnn1-c1ccc(C(F)(F)F)cc1", "note": "[Example E7]", "values": [{"measurement": "IC50", "setting": "[1]; 72 hours", "result": 349, "unit": "nM"}, {"measurement": "inhibition at 1 µM", "setting": "hERG [2]", "result": 21.1, "unit": "%"}]}
{"smiles": "Cc1c(C(=O)Nc2ccc(C3CCC(=O)CC3)nc2)cnn1-c1ccc(Cl)cc1", "note": "[Example E13]", "values": [{"measurement": "IC50", "setting": "[1]; Mus musculus, 72 h", "result": 109, "unit": "nM"}, {"measurement": "minimal effective dose", "setting": "[5]", "result": 1, "unit": "mg/kg"}, {"measurement": "inhibition at 1 µM", "setting": "hERG [6]", "result": 10.3, "unit": "%"}]}
{"smiles": "Cc1cc(NC(=O)c2cnn(-c3ccc(C(F)(F)F)cc3)c2C)cnc1C1=CCC(N2CCOCC2)CC1", "note": "(stereo not drawn) [Example E24]", "values": [{"measurement": "minimal effective dose", "setting": "[5]", "result": 1, "unit": "mg/kg"}]}
{"smiles": "Cc1c(C(=O)Nc2ccc([C@]3(C#N)CC[C@@H](O)CC3)nc2)cnn1-c1ccc(Cl)cc1", "note": "[Example G1, 1-(4-Chlorophenyl)-N-[6-(r-1-cyano-c-4-hydroxycyclohexyl)pyridin-3-yl]-5-methyl-1H-pyrazole-4-carboxamide]", "values": [{"measurement": "IC50", "setting": "[1]; Mus musculus, 72 h", "result": 118, "unit": "nM"}, {"measurement": "minimal effective dose", "setting": "[5]", "result": 3, "unit": "mg/kg"}, {"measurement": "inhibition at 1 µM", "setting": "hERG [6]", "result": 25.8, "unit": "%"}]}
{"smiles": "Cc1c(C(=O)Nc2ccc([C@]3(C#N)CC[C@@H](O)CC3)nc2)cnn1-c1ccc(F)cc1", "note": "[Example G2, N-[6-(r-1-cyano-c-4-hydroxycyclohexyl)pyridin-3-yl]-1-(4-fluorophenyl)-5-methyl-1H-pyrazole-4-carboxamide]", "values": [{"measurement": "IC50", "setting": "[1]; Mus musculus, 72 h", "result": 194, "unit": "nM"}, {"measurement": "minimal effective dose", "setting": "[5]", "result": 1, "unit": "mg/kg"}, {"measurement": "inhibition at 1 µM", "setting": "hERG [6]", "result": 15.2, "unit": "%"}]}
{"smiles": "Cc1ccc(-n2ncc(C(=O)Nc3ccc([C@]4(C#N)CC[C@@H](O)CC4)nc3)c2C)cc1", "note": "[Example G3, N-[6-(r-1-Cyano-c-4-hydroxycyclohexyl)pyridin-3-yl]-5-methyl-1-(4-methylphenyl)-1H-pyrazole-4-carboxamide]", "values": [{"measurement": "IC50", "setting": "[1]; Mus musculus, 72 h", "result": 91.8, "unit": "nM"}, {"measurement": "minimal effective dose", "setting": "[5]", "result": 1, "unit": "mg/kg"}, {"measurement": "inhibition at 1 µM", "setting": "hERG [6]", "result": 4.4, "unit": "%"}]}
{"smiles": "Cc1c(C(=O)Nc2ccc([C@]3(C#N)CC[C@@H](O)CC3)nc2)cnn1-c1ccc(C(F)(F)F)cc1", "note": "[Example G6]", "values": [{"measurement": "IC50", "setting": "[1]; Mus musculus, 72 h", "result": 73.9, "unit": "nM"}, {"measurement": "Effective Dose", "setting": "[5]", "result": 10, "unit": "mg/kg"}, {"measurement": "inhibition at 1 µM", "setting": "hERG [6]", "result": 26, "unit": "%"}]}
{"smiles": "Cc1c(C(=O)Nc2ccc([C@]3(C#N)CC[C@@H](O)CC3)nc2)cnn1-c1ccc(F)cc1F", "note": "[Example G7]", "values": [{"measurement": "IC50", "setting": "[1]; Mus musculus, 72 h", "result": 198, "unit": "nM"}, {"measurement": "minimal effective dose", "setting": "[5]", "result": 0.3, "unit": "mg/kg"}, {"measurement": "inhibition at 1 µM", "setting": "hERG [6]", "result": 5.2, "unit": "%"}]}
{"smiles": "Cc1c(C(=O)Nc2ccc([C@]3(C#N)CC[C@H](O)CC3)nc2)cnn1-c1ccc(C(F)(F)F)cc1", "note": "[Example K2]", "values": [{"measurement": "minimal effective dose", "setting": "[5]", "result": 10, "unit": "mg/kg"}]}
